Structures are written as SMILES.

The results in this text go back to US11510859B2, “Method for improving aqueous solubility of water-insoluble or slightly water-soluble drugs” (MARINOMED BIOTECH AG, priority 2015, dated 2022).

Holding throughout (assay type): physicochemical
A short description of data set [1]: Solubility of budesonide in 0.25x McIlvaine buffer with/without propylene glycol, saponin, dexpanthenol (Examples 5-9). The procedure: Budesonide was analyzed by RP-HPLC (UV absorbance detection at 244 nm) using isocratic elution with 55% acetonitrile 0.01% TFA/45% water 0.01% TFA at 1 ml/min for 7 min on an Agilent Zorbax SB C18 3.5 μm 4.6×150 mm column with 4×4 mm RP8 pre-column. From the budesonide-containing samples 40 μl were injected and analyzed.
Buffer • B . . . 5% propylene glycol • C . . . 10% propylene glycol • D . . . 15% propylene glycol • y-axis . . . concentration of dissolved budesonide
FIGS. 2a and 2b refer to the concentrations of budesonide still dissolved after one month of storage at ambient temperature (T˜20-25° C.) in 0.25× McIlvaine buffer containing 5% (FIG. 2a) and 10% (FIG. 2b) propylene glycol (maximum concentration 550 μg/ml budesonide). […] Further increase of escin concentration remains substantially without additional benefit. […] 0% Dexpanthenol • B . . . 1% Dexpanthenol • C . . . 2% Dexpanthenol • D . . . 5% Dexpanthenol • y-axis . . . μg/ml dissolved budesonide • x-axis . . . w/v % Escin
FIGS. 3a and 3b are based on data sets identical to those of FIG. 2a/2b but after 3 months of storage at ambient temperature (T˜20-25° C.). • FIG. 3a: 5% propylene glycol; FIG. 3b: 10% propylene glycol • A . . . 0% Dexpanthenol • B . . . 1% Dexpanthenol • C . . . 2% Dexpanthenol • D . . . 5% Dexpanthenol • y-axis . . . μg/ml dissolved budesonide • x-axis . . . w/v % Escin
FIG. 4 represents that 0.03% w/v escin and 5% v/v dexpanthenol independently increase the solubility of budesonide in McIlvaine buffer in the absence of propylene glycol. […] Yet, the solubility of budesonide in this buffer system, i.e., in the absence of propylene glycol, remains at or below the corresponding values achieved in the presence of propylene glycol alone, i.e., in the absence of escin and dexpanthenol (see FIGS. 2a, b and 3a, b). The only exception being the value at column D which moderately exceeds the solubility values achieved with propylene glycol alone. • A . . . 0% Escin/0% Dexpanthenol • B . . . 0% Escin/5% Dexpanthenol • C . . . 0.03% Escin/0% Dexpanthenol • D . . . 0.03% Escin/5% Dexpanthenol • y-axis . . . concentration of dissolved budesonide in [μg/ml]
For Quillaja saponins, but not for glycyrrhizin, this applies also at a saponin concentration of 0.1%. […] Escin • B . . . Glycyrrhizin • C . . . Quillaja extract • * . . . w/v % Saponin component (escin, glycyrrhizin or Quillaja ext.) • # . . . v/v % Dexpanthenol • y-axis . . . concentration of dissolved budesonide

Data set [2] in a line: Budesonide solubility and storage stability in the presence of carrageenan (Examples 1, 2, 12, 13). To be noted: 1.2 g/L iota-carrageenan, optionally 0.4 g/L kappa-carrageenan; 5% or 10% propylene glycol. The procedure:
Samples of series A (0% dexpanthenol): 2.5 ml solution containing the respective escin concentration (McIlvaine 0.01%, 0.02%, 0.03% or McIlvaine buffer) were mixed with 5 ml carrageenan stock solution and 0.5 ml budesonide pre-solution and filled up to 10 ml with distilled water.
Samples of series B (2% dexpanthenol): 2.5 ml solution containing the respective escin concentration (McIlvaine 0.01%, 0.02%, 0.03% or McIlvaine buffer) were mixed with 0.2 ml dexpanthenol, 5 ml carrageenan stock solution and 0.5 ml budesonide pre-solution and filled up to 10 ml with distilled water. […]
After 3 months storage at room temperature, samples were taken and centrifuged for 11 min at 15700 rcf. The clear supernatant was filled into glass vials and the concentration of dissolved budesonide (maximal 500 μg/ml) was measured in duplicates by HPLC.
Budesonide was analyzed by RP-HPLC (UV absorbance detection at 244 nm) using isocratic elution with 55% acetonitrile 0.01% TFA/45% water 0.01% TFA at 1 ml/min for 7 min on an Agilent Zorbax SB C18 3.5 μm 4.6×150 mm column with 4×4 mm RP8 pre-column. From the budesonide-containing samples 40 μl were injected and analyzed. […]

Data set [3] in a line: Saturation concentrations of drugs in buffered solvent, HPLC of supernatant (Example 4). As to conditions: for Saturation concentration in 10% propylene glycol or DMSO without escin or dexpanthenol / Saturation concentration in 10% propylene glycol or DMSO, 0.1% escin and 5% dexpanthenol: McIlvaine buffer pH 6.0, compound pre-dissolved in propylene glycol. The protocol: 250 μl “McIlvaine 0.1%” were mixed with 50 μl dexpanthenol stock solution, brought to 900 μl with distilled water, and combined and vigorously mixed with 100 μl experimental compound pre-dissolved resp. pre-suspended in propylene glycol. Alternative solutions with compound pre-dilutions/pre-suspensions in DMSO were prepared. Samples were centrifuged for 10 min at 15800 rcf. Aliquots of the clear supernatants were transferred into autosampler glass vials and the content of the dissolved experimental compounds was analyzed by HPLC using isocratic elution with 70% or 80% acetonitrile 0.01% TFA/[…] or 30% water 0.01% TFA at 1 ml/min and 50° C. for 10 min on an Agilent Zorbax Eclipse Plus C18 column (3.5 μm, 4.6×150 mm) and UV absorbance detection at the wavelengths appropriate for the respective experimental compound.

Data set [4] is described as follows: Micelle formation of saponins, Hoechst 33342 fluorescence. The procedure: In water and aqueous buffers containing a detergent below the critical micelle concentration fluorescence of the Hoechst 33342 dye is almost undetectable. Upon increase of the detergent concentration until the critical micelle concentration is reached micelles begin to form and the dye starts getting incorporated into the micelles, whereupon an increase of a fluorescence signal can be detected. For the experiments of this example, the dye was mixed at a final concentration of 7 μM with aqueous buffer comprising different concentrations of saponin in black, flat and clear bottom 96-well plates and emission spectra were measured using a microplate reader (filters used: ex=355 nm and em=460 nm). Finally, data were background corrected.

On to `CCCC1O[C@@H]2C[C@H]3[C@@H]4CCC5=CC(=O)C=C[C@]5(C)[C@H]4[C@@H](O)C[C@]3(C)[C@]2(C(=O)CO)O1` (stereo partly shown) [Budesonide], for which, in data set [1] (0.01-0.02% w/v escin, 5% or 10% propylene glycol, one month storage at ambient temperature), the “effect of escin on solubility of the steroid” value is “dramatically increases the solubility”. The “combined effect of escin and dexpanthenol on budesonide solubility” value in data set [1] (0.03% escin and 5% dexpanthenol, McIlvaine buffer, no propylene glycol) is given as “synergy seems to occur”. Besides, the “effect of dexpanthenol on stability of the experimental solutions” value in data set [1] (3 months storage at ambient temperature, particularly at 5% propylene glycol and very low escin) is “seems to improve the stability”. Further, in data set [1] (in the absence of dexpanthenol), the “effect of glycyrrhizin and Quillaja saponaria extract saponins on steroid solubility” value is reported as “without substantial effect”. Further, the “effect of carrageenans on solubility of the steroid” value in data set [2] is “do not substantially interfere with the solubility”.
Take `COc1cc(/C=C/C(=O)CC(=O)/C=C/c2ccc(O)c(OC)c2)ccc1O` [Curcumin]: in data set [3] (0.03% escin), the “Saturation concentration in 10% propylene glycol or DMSO, escin and 5% dexpanthenol” value was 126 µg/mL. Besides, the “Saturation concentration in 10% propylene glycol or DMSO, saponin and 5% dexpanthenol” value in data set [3] (2% glycyrrhizin instead of escin) worked out at 285 µg/mL. The “Saturation concentration in 10% propylene glycol or DMSO without escin or dexpanthenol” value in data set [3] was <0.2 µg/mL.
For `CC(=O)O[C@H]1C(=O)[C@@]2(C)[C@H]([C@H](OC(=O)c3ccccc3)[C@]3(O)C[C@H](OC(=O)[C@H](O)[C@@H](NC(=O)c4ccccc4)c4ccccc4)C(C)=C1C3(C)C)[C@]1(OC(C)=O)CO[C@@H]1C[C@@H]2O` [Paclitaxel], in data set [3], the “Saturation concentration in 10% propylene glycol or DMSO without escin or dexpanthenol” value turned out to be 2.71 µg/mL; the “Saturation concentration in 10% propylene glycol or DMSO, 0.1% escin and 5% dexpanthenol” value was 32.7 µg/mL.
Take `CC[C@@H]1/C=C(\C)C[C@H](C)C[C@H](OC)[C@H]2O[C@@](O)(C(=O)C(=O)N3CCCC[C@H]3C(=O)O[C@H](/C(C)=C/[C@@H]3CC[C@H](Cl)[C@H](OC)C3)[C@H](C)[C@@H](O)CC1=O)[C@H](C)C[C@@H]2OC` [Pimecrolimus]: the “Saturation concentration in 10% propylene glycol or DMSO, saponin and 5% dexpanthenol” value in data set [3] (1% glycyrrhizin instead of escin) turned out to be 34.5 µg/mL. In data set [3], the “Saturation concentration in 10% propylene glycol or DMSO without escin or dexpanthenol” value was <0.1 µg/mL.
Consider `C=CC[C@@H]1/C=C(\C)C[C@H](C)C[C@H](OC)[C@H]2O[C@@](O)(C(=O)C(=O)N3CCCC[C@H]3C(=O)O[C@H](/C(C)=C/[C@@H]3CC[C@@H](O)[C@H](OC)C3)[C@H](C)[C@@H](O)CC1=O)[C@H](C)C[C@@H]2OC.O` [Tacrolimus/FK506, Tacrolimus], for which, in data set [3], the “Saturation concentration in 10% propylene glycol or DMSO without escin or dexpanthenol” value amounted to 132 µg/mL; the “Saturation concentration in 10% propylene glycol or DMSO, 0.1% escin and 5% dexpanthenol” value turned out to be 774 µg/mL.
As for `CC1(C)[C@@H](O[C@H]2O[C@H](C(=O)O)[C@@H](O)[C@H](O)[C@H]2O[C@@H]2O[C@H](C(=O)O)[C@@H](O)[C@H](O)[C@H]2O)CC[C@]2(C)[C@H]3C(=O)C=C4[C@@H]5C[C@@](C)(C(=O)O)CC[C@]5(C)CC[C@@]4(C)[C@]3(C)CC[C@@H]12` [glycyrrhizin], in data set [4] (Hoechst 33342 dye 7 μM, room temperature), the “concentration sufficient to trigger the formation of micelles (same RFU level)” value amounted to 0.5%. Besides, the “increase of required concentration relative to escin” value in data set [4] (same fluorescence level) is given as 25 fold.
